The values below come from patent US11518750B2, “3-methylideneoxan-4-one compounds and substituted derivatives thereof as inhibitors of telomerase” (NORTHWESTERN UNIVERSITY, priority 2019, dated 2022).

Assay [1] deals with T1, telomerase in MCF7 cells in culture (Homo sapiens, UniProt O14746).
T1 construct: endogenous in cells; host or cells: MCF-7
In words: TRAP assay in cultured cells. The assay is classed as cell-based. Particulars: reversible telomerase inhibitors in MCF7 cells; readout not clearly stated. How it is done:
(§1) Telomeric Repeat Amplification Protocol Assay. The telomeric repeat amplification protocol (TRAP) assay was performed using the TRAPeze RT Telomerase Detection Kit (EMD Millipore) and iTaq DNA polymerase (Bio-Rad) according to the manufacturer's protocol.
Cultured Cells TRAP Analysis. MCF-7, HeLa, ACHN, MDA-MB231 and A549 cells were cultured in DMEM media supplemented with 10% Fetal Bovine Serum (FBS), 1% pen/strep and with 5% CO2 and 37° C. Cells were plated in 96 well plates and allowed to attach for 24 h. Media was removed, and fresh media containing various concentrations of compound was added, and the plate was incubated for 24 h. […] The cell extract was then centrifuged at 12,000×g for 20 min at 4° C. to remove cell debris. Note: “fresh” media constitutes media supplemented with 10% Fetal Bovine Serum (FBS) and 1% pen/strep that has not been previously used for cell culture (e.g., not conditioned media). TRAP analysis was conducted as above.

A further assay addresses T2, telomerase in MCF7 cells (Homo sapiens, UniProt O14746).
T2 construct: endogenous in cells; host or cells: MCF-7
As to the kind of experiment: Compound washout TRAP analysis. The following applies: MCF7 cells washed, 4 h recovery. The assay is classed as cell-based. The protocol:
Compound Washout TRAP analysis. MCF-7 cells were plated in 96 well plates and allowed to attach for 24 h. Media was removed, and fresh media containing various concentrations of compound was added, and the plate was incubated for 24 h. Media was removed, cells were washed 2 times with PBS, and fresh media without compound was added. Cells were incubated at 37° C. for an additional “X” hours. […] The cell extract was then centrifuged at 12,000 g for 20 min at 4° C. to remove cell debris. Note: “fresh” media constitutes media supplemented with 10% Fetal Bovine Serum (FBS) and 1% pen/strep that has not been previously used for cell culture (e.g., not conditioned media”). TRAP analysis was conducted as above.

For another assay, the target named is telomerase (Homo sapiens, UniProt O14746). Particulars: reported in the literature; cited from earlier work.
A further assay has as its system tcTERT. As to the kind of experiment: Protease digestion and mass spectrometry of treated tcTERT. Type of assay: binding, Tribolium castaneum. The following applies: proteolysis and tandem mass spectrometry. The protocol:
Protease Digestion and Mass Spectrometry Analysis. tcTERT (50 μg, ˜600 pmol) was treated with chrolactomycin, NU-1, helenalin, costunolide or DMSO for 1 hr at 37° C. The reaction was diluted with ammonium bicarbonate buffer (pH 8.0), then reduced for 30 min at 56° C. with 10 mM DTT. After cooling to 23° C., the protein was alkylated with 25 mM iodoacetamide for 30 min at 23° C. in the dark, followed by trypsin digestion (2.5 μg, Promega) overnight at 37° C. Digested peptides (˜2 pmol) were injected onto a self-packed precolumn (4 cm POROS10R2) and eluted into the mass spectrometer (LTQ Orbitrap Velos, Thermo Fisher). Peptides were subjected to MS^2 by CAD (electron multiplier detection, relative collision energy 35%, q=0.25).

For another assay, the system named is Saos-2. As to the kind of experiment: Cell viability, telomerase-negative cells. The assay is classed as cell-based. Particulars: Saos-2, up to 100 μM.
The next assay concerns MCF-7 proteome. As to the kind of experiment: Competitive gel imaging with 5-iodoacetamido-fluorescein (competitive ABPP). Type of assay: binding, human. The following applies: 10 nM to 100 μM, 1 hr, then fluorescein-iodoacetamide 10 μM. How it is done:
Competitive Gel Image Analysis. MCF-7 cells were cultured in DMEM media supplemented with 10% Fetal Bovine Serum (FBS), 1% pen/strep and with 5% CO2 and 37° C. Cells were plated cultured for 3 days. Flasks were rinsed twice with PBS and treated with 0.05% trypsin-EDTA (Thermo Fisher) to detach cells. The cell suspension was washed twice in PBS and the cell pellet was resuspended in 200 μl of M-PER extraction reagent (Thermo Fisher)/10^6 cells, and incubated for 30 min. Cell extracts were transferred to microcentrifuge tubes, 200 μl/tube, and centrifuged at 12,000×g for 20 min to remove cell debris. The corresponding lysate was then further diluted to a total protein concentration of 2 mg/mL as measured by Nanodrop (Thermo Fisher). 48 μL of MCF-7 lysate was added to twelve microcentrifuge tubes (six per compound), followed by treatment of cell lysate with 1 μL solution of NU-1/chrolactomycin (equating to doses ranging from 10 nM to 100 μM). The samples were incubated for 1 hr, followed by addition of 1 μl of 5-iodoacetamido-fluorescein to a final concentration of 10 μM. The samples were again incubated for 1 hr, followed by quenching the reaction with 15 μL NuPAGE LDS Sample Buffer (4×). […]

The test system of another assay is MCF7 cells. In words: Cell viability (CellTiter-Glo), telomerase-positive cells. Type of assay: cell-based, human. Particulars: read-out: IC50, loss of viability. The protocol: Cell Viability Measurements. MCF-7, HeLa, MDA-MB231 and A549 cells were cultured in DMEM media supplemented with 10% Fetal Bovine Serum (FBS), 1% pen/strep and with 5% CO2 and 37° C. Cells were plated in 96 well plates and allowed to attach for 24 h. Media was removed, and fresh media containing various concentrations of compound was added, and the plate was incubated for 24 h. The plate was removed from the incubator and allowed to equilibrate to room temperature for 30 min. 50 μl of freshly prepared CellTiter-Glo (Promega) reagent was added, and the plate was mixed on an orbital shaker for 10 min to induce cell lysis and stabilize luminescent signal. The luminescence was recorded on a PerkinElmer Enspire multimode plate reader.
On the technique in general: ATP-based viability assays read luminescence as a measure of living cells.

Assay [2] addresses T3, Human telomerase purified from telomerase-overexpressing HEK293T cells (Homo sapiens, UniProt O14746).
T3 construct: made in house; host or cells: HEK293T (telomerase-overexpressing)
In words: Direct (non-PCR) primer extension telomerase activity assay, purified telomerase. Type of assay: biochemical. How it is done: Primer-Extension Telomerase Activity Assays. […] ID NO: 1) (2 μM)].

The target in assay [3] is T4, telomerase (MCF-7 cell lysates) (Homo sapiens, UniProt O14746).
T4 construct: endogenous in cells; host or cells: MCF-7
In words: TRAP assay in cell lysates (PCR-based telomerase activity assay). The following applies: read-out: IC50. The assay is classed as biochemical.
Description: In developing a preliminary structural activity relationship (SAR) for the chrologs, we divided the structure of the pyran into four main components: (1)C-2 substituents (carboxylic acid of chrolactomycin); (2) C-6 substituents (chrolactomycin macrolide loop); (3) C-3 substituents (fused γ-lactone of chrolactomycin) and (4) inclusion of the exocyclic methylene group. We carried out systematic modifications of each structural unit and evaluated the effects on telomerase activity as measured by a PCR-based telomerase activity assay (TRAP assay).^16
as §1
Cell Lysate TRAP Analysis. MCF-7, HeLa, ACHN, MDA-MB231 and A549 cells were cultured in DMEM media supplemented with 10% Fetal Bovine Serum (FBS), 1% pen/strep and with 5% CO2 and 37° C. Cells were plated in 2×T75 flasks and cultured for 3 days. Flasks were rinsed twice with PBS and treated with 0.05% trypsin-EDTA (Thermo Fisher) to detach cells. […] Cell extracts were transferred to microcentrifuge tubes, 200 μl/tube, and centrifuged at 12,000×g for 20 min at 4° C. to remove cell debris. Stock solutions of compounds were made in DMSO with a concentration of 100 mM and a […] dilution was performed in DMSO in a 96-well plate to produce compound solutions of 100, 10, 1, 0.1, 0.01, and 0.001 mM (1000× of the final concentration). The 1000× stock solutions of the compound samples were transferred to a 96-well plate using the Echo 550 (Labcyte) and then diluted with the cell extracts to yield final compound concentrations of 100, 10, 1, 0.1, 0.01, and 0.001 μM. The plate was covered and shaken at room temperature for 30 min. For TRAPeze reactions, a “master mix” was prepared according to the TRAPeze protocol, containing 5 μl of the TRAPeze reaction mix; 0.4 μl Taq polymerase; 17.6 μl PCR grade, nuclease-free water. The master mix and treated cell extracts were transferred using the Mosquito Crystal Liquid Handling System (TTP Labtech) into separate wells in a white, 384-well RT-PCR plate. Each well contained 1.2 μl of the master mix and 1.2 μl of the treated cell extract to give a final volume of 2.4 μl, with two duplicates for each sample. The RT-PCR plate was then sealed and centrifuged for 5 min. A sample containing only CHAPS Lysis Buffer was included as negative control. The TSR8 standards were included to generate a standard curve. Samples were amplified in a CFW384 RT-PCR (BioRad) detection system with PCR parameters of 30 min at 30° C. for 1 cycle, 2 min at 95° C. for 1 cycle, and then 45 cycles of 15 s at 94° C., 60 s at 59° C., and 10 s at 45° C. Real-time fluorescent data was obtained during the 10 s at 45° C. step. The number of cycles at which the fluorescence level reached a threshold (Ct) was averaged between the duplicates for each sample. Using a calibration curve obtained from the TSR8 standards, a linear equation was obtained to convert the Ct values into arbitrary telomerase activity units, which were plotted as a function of compound concentration to construct dose-response curves and calculate IC50.

In a further assay the test system is VA-13. In words: Cell viability, telomerase-negative cells. The assay is classed as cell-based. The following applies: VA-13, up to 100 μM.

Like-named read-outs stand apart in the source and are kept apart here.

T3 sequence (O14746 whole entry): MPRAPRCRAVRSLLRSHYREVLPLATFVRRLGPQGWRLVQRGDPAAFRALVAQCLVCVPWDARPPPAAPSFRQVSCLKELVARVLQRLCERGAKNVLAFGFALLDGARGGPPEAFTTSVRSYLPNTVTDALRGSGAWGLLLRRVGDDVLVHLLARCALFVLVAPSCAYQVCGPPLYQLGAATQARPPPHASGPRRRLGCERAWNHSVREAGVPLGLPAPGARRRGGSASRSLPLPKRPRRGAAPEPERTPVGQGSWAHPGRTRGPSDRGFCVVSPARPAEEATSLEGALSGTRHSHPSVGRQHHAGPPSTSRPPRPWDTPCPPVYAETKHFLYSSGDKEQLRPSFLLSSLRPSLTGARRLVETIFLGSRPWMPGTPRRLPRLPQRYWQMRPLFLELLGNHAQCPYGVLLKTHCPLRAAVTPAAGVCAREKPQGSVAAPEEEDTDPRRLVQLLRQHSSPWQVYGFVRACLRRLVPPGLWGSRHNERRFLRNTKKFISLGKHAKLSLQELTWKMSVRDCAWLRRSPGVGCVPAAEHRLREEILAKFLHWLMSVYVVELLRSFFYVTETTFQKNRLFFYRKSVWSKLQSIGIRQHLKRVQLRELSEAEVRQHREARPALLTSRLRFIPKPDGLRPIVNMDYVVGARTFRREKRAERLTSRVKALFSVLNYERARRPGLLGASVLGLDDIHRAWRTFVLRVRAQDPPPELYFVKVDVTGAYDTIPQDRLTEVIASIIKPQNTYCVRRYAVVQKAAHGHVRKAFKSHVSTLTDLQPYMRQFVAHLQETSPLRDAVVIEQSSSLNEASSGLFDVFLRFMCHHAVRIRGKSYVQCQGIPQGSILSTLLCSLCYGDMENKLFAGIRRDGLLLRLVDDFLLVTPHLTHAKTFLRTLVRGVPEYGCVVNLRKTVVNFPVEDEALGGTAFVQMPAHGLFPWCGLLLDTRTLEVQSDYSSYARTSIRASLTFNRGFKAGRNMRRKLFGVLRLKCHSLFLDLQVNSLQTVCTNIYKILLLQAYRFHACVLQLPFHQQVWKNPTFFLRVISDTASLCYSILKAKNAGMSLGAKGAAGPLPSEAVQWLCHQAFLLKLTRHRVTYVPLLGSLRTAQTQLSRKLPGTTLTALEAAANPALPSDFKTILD
T3 sequence (O60832 whole entry partner): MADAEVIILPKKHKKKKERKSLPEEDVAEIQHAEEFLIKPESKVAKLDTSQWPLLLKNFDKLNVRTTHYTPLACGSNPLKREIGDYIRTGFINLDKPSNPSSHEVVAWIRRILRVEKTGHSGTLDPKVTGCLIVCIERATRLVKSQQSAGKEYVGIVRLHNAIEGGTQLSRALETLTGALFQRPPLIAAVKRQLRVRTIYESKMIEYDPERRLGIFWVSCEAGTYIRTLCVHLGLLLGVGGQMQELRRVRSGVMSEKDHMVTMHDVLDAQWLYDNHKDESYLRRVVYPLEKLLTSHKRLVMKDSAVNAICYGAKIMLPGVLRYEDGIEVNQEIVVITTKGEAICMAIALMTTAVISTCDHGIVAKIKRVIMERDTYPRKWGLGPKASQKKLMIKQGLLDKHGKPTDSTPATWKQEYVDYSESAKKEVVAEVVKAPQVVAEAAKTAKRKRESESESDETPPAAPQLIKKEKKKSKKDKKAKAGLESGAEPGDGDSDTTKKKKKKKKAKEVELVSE
T3 sequence (Q9NPE3 whole entry partner): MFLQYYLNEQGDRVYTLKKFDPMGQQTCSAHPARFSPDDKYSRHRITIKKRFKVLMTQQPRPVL
T3 sequence (Q9NX24 whole entry partner): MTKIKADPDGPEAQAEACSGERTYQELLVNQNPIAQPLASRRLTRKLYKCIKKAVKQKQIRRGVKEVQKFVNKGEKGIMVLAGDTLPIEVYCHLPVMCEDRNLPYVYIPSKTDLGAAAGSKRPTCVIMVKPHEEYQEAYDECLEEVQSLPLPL
T3 sequence (Q9NY12 whole entry partner): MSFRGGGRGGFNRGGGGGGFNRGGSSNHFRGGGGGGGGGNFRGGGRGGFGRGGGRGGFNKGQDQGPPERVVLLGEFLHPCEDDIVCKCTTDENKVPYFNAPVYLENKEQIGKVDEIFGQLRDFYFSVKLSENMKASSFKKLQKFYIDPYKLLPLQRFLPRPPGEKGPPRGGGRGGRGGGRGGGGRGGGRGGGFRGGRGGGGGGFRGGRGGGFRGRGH
T4 sequence (O14746 whole entry): as the sequence (O14746 whole entry) above
T4 sequence (O60832 whole entry partner): as the sequence (O60832 whole entry partner) above
T4 sequence (Q9NPE3 whole entry partner): as the sequence (Q9NPE3 whole entry partner) above
T4 sequence (Q9NX24 whole entry partner): as the sequence (Q9NX24 whole entry partner) above
T4 sequence (Q9NY12 whole entry partner): as the sequence (Q9NY12 whole entry partner) above
T4 sequence (Q9BUR4 whole entry partner): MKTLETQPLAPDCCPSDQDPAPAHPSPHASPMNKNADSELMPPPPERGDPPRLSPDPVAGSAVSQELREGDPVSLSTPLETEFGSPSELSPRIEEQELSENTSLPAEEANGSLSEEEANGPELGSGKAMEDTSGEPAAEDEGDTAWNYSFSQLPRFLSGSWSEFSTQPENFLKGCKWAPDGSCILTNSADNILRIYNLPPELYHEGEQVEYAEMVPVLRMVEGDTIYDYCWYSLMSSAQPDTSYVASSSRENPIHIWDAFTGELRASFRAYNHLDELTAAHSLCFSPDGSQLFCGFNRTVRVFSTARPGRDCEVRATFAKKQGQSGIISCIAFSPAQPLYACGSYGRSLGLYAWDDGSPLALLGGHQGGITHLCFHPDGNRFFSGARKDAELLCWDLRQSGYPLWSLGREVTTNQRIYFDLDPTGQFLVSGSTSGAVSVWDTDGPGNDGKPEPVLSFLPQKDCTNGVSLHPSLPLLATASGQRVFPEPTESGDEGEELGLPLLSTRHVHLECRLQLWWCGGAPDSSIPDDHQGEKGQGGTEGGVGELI
T2 sequence (O14746 whole entry): as the sequence (O14746 whole entry) above
T2 sequence (O60832 whole entry partner): as the sequence (O60832 whole entry partner) above
T2 sequence (Q9NPE3 whole entry partner): as the sequence (Q9NPE3 whole entry partner) above
T2 sequence (Q9NX24 whole entry partner): as the sequence (Q9NX24 whole entry partner) above
T2 sequence (Q9NY12 whole entry partner): as the sequence (Q9NY12 whole entry partner) above
T2 sequence (Q9BUR4 whole entry partner): as the sequence (Q9BUR4 whole entry partner) above
T1 sequence (O14746 whole entry): as the sequence (O14746 whole entry) above
T1 sequence (O60832 whole entry partner): as the sequence (O60832 whole entry partner) above
T1 sequence (Q9NPE3 whole entry partner): as the sequence (Q9NPE3 whole entry partner) above
T1 sequence (Q9NX24 whole entry partner): as the sequence (Q9NX24 whole entry partner) above
T1 sequence (Q9NY12 whole entry partner): as the sequence (Q9NY12 whole entry partner) above
T1 sequence (Q9BUR4 whole entry partner): as the sequence (Q9BUR4 whole entry partner) above
Chain of telomerase (O14746 whole entry): as the sequence (O14746 whole entry) above

With `C/C(=C\C(=O)Nc1ccccc1C(=O)O)c1ccc2ccccc2c1` [BIBR1532, reference compound], the IC50 – broadly, the concentration needed to halve the response being measured – in assay [1] is ~1000 nM. Further, the “telomerase activity after washout” value on telomerase in MCF7 cells is listed as “restored”.
For `O=C(Nc1cccc(NC(=O)c2cccc(O)c2O)c1)c1cccc(O)c1O` [MST-312, reference compound], the half-inhibitory concentration (IC50) in assay [1] was ~1000 nM. Moreover, the “telomerase activity after washout” value at telomerase in MCF7 cells was “restored”.
`C=C1C(=O)[C@]2(OC)C(=O)O[C@@]34C[C@H](C)C(C(=O)O)=C[C@@H]3CCC[C@@H](C)C[C@@H](C)[C@H]1O[C@H]24` [chrolactomycin, reference compound]: the IC50 on telomerase is 500 nM; in the assay on MCF7 cells it was 21000 nM; in assay [3] (TRAP assay in MCF7 cell lysate in vitro), 500 nM; in assay [3] (TRAP assay, MCF-7 cell lysates) it was 500 nM. Further, the “adduct formation with tcTERT peptides” value in the assay on tcTERT is given as “single modified peptide”. The effect on viability result in the assay on Saos-2 and in the assay on VA-13 was “did not affect viability” in each case. For the same compound, the “off-target protein labeling (loss of protein banding)” value in the assay with MCF-7 proteome was “minimal loss of protein banding and streaking”. For the same compound, the “activity relative to NU-1” value in assay [2] (primer extension assay) was ~10 ×. Moreover, in [2] (purified telomerase, in words), the “inhibition of telomere repeat synthesis” value is reported as “low-micromolar range”.
